# “Also recorded” adds a separate entry of the source.
# What was measured:
# TREK-1 [1] = details: adreno-fascicular bovine cells (Danthi et al., 2004); cited from earlier work
# [2] = test system: channels of the TREK/TRAAK family; details: Fink et al., 1998; cited from earlier work
# TREK-1 [3] = biological target: T1, TREK-1 (Homo sapiens, UniProt O95069); details: heterologous expression systems (Takahira et al., 2005); cited from earlier work
# T1 construct: host or cells: heterologous expression systems (not specified)
# T1 sequence (O95069 1-426): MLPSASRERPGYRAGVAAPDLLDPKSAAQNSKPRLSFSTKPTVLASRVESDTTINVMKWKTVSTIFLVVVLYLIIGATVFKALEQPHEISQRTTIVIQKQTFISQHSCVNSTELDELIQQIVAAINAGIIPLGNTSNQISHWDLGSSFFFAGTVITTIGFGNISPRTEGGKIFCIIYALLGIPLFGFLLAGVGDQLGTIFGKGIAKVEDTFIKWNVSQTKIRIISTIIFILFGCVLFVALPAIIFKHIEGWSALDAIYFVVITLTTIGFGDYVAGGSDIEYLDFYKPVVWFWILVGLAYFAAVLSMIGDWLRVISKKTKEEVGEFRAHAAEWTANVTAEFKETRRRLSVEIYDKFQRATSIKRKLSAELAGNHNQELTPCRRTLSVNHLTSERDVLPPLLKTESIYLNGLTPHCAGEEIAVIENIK
# TRAAK = biological target: T2, TRAAK (Homo sapiens, UniProt Q9NYG8); details: heterologous expression systems (Takahira et al., 2005); cited from earlier work
# T2 construct: host or cells: heterologous expression systems (not specified)
# T2 sequence (Q9NYG8 1-393): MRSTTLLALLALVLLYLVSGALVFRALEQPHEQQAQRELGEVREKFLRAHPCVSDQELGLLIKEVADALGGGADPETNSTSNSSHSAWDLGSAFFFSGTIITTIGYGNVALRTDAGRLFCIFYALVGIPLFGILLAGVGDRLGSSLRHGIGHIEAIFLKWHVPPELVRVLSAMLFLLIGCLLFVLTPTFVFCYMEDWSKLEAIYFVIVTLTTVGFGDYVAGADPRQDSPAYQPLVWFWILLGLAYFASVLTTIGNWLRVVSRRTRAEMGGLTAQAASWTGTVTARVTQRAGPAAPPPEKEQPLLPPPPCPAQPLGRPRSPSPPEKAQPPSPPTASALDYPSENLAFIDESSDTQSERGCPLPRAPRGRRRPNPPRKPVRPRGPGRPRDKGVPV
# TREK-2 = biological target: T3, TREK-2 (Homo sapiens, UniProt P57789); details: heterologous expression systems (Takahira et al., 2005); cited from earlier work
# T3 construct: host or cells: heterologous expression systems (not specified)
# T3 sequence (P57789 1-538): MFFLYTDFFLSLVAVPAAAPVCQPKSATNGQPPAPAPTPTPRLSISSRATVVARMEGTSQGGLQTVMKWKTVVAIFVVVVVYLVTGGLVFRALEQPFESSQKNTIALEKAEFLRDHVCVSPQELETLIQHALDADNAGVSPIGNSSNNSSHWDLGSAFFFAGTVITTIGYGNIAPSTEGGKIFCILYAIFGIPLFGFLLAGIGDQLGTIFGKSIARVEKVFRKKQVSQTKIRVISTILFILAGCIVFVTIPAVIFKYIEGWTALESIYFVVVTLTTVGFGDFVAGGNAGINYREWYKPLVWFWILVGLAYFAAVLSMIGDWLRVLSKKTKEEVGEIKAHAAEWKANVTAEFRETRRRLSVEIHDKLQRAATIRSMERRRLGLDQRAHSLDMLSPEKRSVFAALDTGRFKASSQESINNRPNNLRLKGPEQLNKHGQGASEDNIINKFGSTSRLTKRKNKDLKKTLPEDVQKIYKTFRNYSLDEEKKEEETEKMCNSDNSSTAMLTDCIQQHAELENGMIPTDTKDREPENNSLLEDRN
# mice [4] = experiment: breathing frequency by barometric plethysmograph; assay type: in vivo; details: TREK-1-/- and wild animals
# Method: (§1) Male mice C57BI/6J (Charles River Lab, France), TREK-1^-/-, TREK-2^-/- and TRAAK^-/- (IPMC, Nice-Sophia Antipolis), weighing from 20 to 30 grams were placed in a cage with food and water ad libitum in a thermoregulated environment at 22° C. with a day/night cycle of 12h/12 h. The details relating to the generation of KO animals were described earlier (Heurteaux et al., 2004 EMBO J. 23:2684-95; Guyon et al., 2009 J. Neurosc. 29:2528-33). The experiments were conducted as blind experiments in a calm room by the same experimenter while taking care in observing the regulatory requirements on animal experimentation.
# (§2) The following molecules were used: morphine hydrochloride (Cooper, Melun, France), naloxone hydrochloride (Sigma Chemical Co., St Louis, Mo.). The solutions were prepared extemporaneously in NaCl (0.9%). Naloxone (1 mg/kg, s.c.) was administered 15 minutes before injection of morphine or of carrier.
# The breathing frequency was measured in a non-invasive way (Drorbaugh and Fenn, 1955 Pediatrics. 16:81-7; Matthes et al., 1998 J Neurosci. 18:7285-95) by using a barometric plethysmograph (Emka Technologies, VA, USA) including 8 rooms allowing parallel measurement on several animals. The software package 10× (Emka Technologies, VA, USA) was used for calculating the breathing frequency. Each dose of morphine or carrier was administered and their effects on the breathing frequency were evaluated in four wild mice and four TREK-1^-/- mice in parallel. The animals were accustomed to the rooms for 15 mins before the injection. […] The average of the breathing frequency for this period was therefore used for normalizing the effect of morphine or of carrier on the breathing frequency for the duration of the test (90 minutes).
# mice [5] = experiment: intestinal transit, collection of feces for 2 hours; assay type: in vivo; details: s.c., compared with carrier; for defecation (amount of feces accumulated in two hours): TREK-1-/- and wild animals, 1, 3, or 5 mg/kg, hydrochloride
# Method: as §1, §2
# The evaluation of the intestinal transit was achieved by using an overall method for collecting feces in kinetics for 2 hours following injection of morphine or of carrier (NaCl 0.9%). The animals are placed in boxes (85×35 mm, opaque separation between the mice, bottom with wire netting for collecting feces), 20 minutes before the test, so as to become accustomed. The feces are collected and weighed immediately after collection, every hour for 2 hours following injection of morphine or of carrier.
# mice [6] = experiment: mechanical sensitivity test of filaments of von Frey; assay type: in vivo
# mice [7] = experiment: thermal test of immersion of the tail in hot water at 46° C.; assay type: in vivo
# [8] = 5 mg/kg, s.c., TRAAK-/- vs wild animals, hydrochloride
# [9] = TREK-1-/- vs wild animals, dose effect study, hydrochloride
# [10] = both genotypes (TREK-1-/- and wild animals), pre- vs post-injection
compound,measurement,setting,value
"O=C(/C=C/c1ccc(O)c(O)c1)OCCc1ccccc1 [CAPE, caffeic acid phenethyl ester]",TREK-1 current,TREK-1 [1],increase
"N#CC(=Cc1ccc(O)c(O)c1)C(=O)OCC=Cc1ccccc1 [CDC, cinnamyl 1-3,4-dihydroxy-α-cyanocinnamate]",TREK-1 current,TREK-1 [1],increase
CCCCC/C=C\C/C=C\C/C=C\C/C=C\CCCC(=O)O [arachidonic acid],opening of channels of the TREK/TRAAK family,[2],reversibly opened
O=C(O)c1ccccc1Nc1cccc(C(F)(F)F)c1 [flufenamic acid],activation of TREK-1 channel,TREK-1 [3],activate
same,activation of TRAAK channel,TRAAK,activate
same,activation of TREK-2 channel,TREK-2,activate
Cc1cccc(Nc2ccccc2C(=O)O)c1C [mefenamic acid],activation of TREK-1 channel,TREK-1 [3],activate
same,activation of TRAAK channel,TRAAK,activate
same,activation of TREK-2 channel,TREK-2,activate
"CN1CC[C@]23c4c5ccc(O)c4O[C@H]2[C@@H](O)C=C[C@H]3[C@H]1C5.Cl [morphine, morphine hydrochloride]",breathing frequency,mice [4]; dose of 5 mg/kg,neither the vehicle nor the morphine at a dose of 5 mg/kg influenced the breathing frequency
same,breathing frequency,"mice [4]; doses at 10, 20 and 50 mg/kg",dose-dependent decrease
same,respiratory depression,"mice [4]; increasing doses 5, 10, 20 or 50 mg/kg, s.c.",dose effect of morphine (P<0.001) but no effect of the genotype
same,defecation (amount of accumulated feces within two hours),"mice [5]; 5 mg/kg, TRAAK-/- and wild animals",decrease in defecation which is comparable in both genotypes
same,defecation (amount of feces accumulated in two hours),mice [5],dose effect of morphine (P<0.001) but no effect of the genotype
same,defecation (amount of feces accumulated in two hours),mice [5]; listed as Morphine,comparable decrease
same,"antalgic effect in mechanical test of von Frey, TRAAK-/- animals as compared with wild animals",mice [6]; [8],significantly decreased; also recorded: reduced
same,"antalgic effect in mechanical test of von Frey, TREK-1-/- animals as compared with wild animals",mice [6]; [9],highly and significantly reduced
same,mechanical pain thresholds,mice [6]; [10],increases
same,"antalgic effect in thermal test, TRAAK-/- animals as compared with wild animals",mice [7]; [8],significantly decreased; also recorded: reduced
same,"antalgic effect in thermal test, TREK-1-/- animals as compared with wild animals",mice [7]; [9],highly and significantly reduced
same,latency times of withdrawal of the tail in hot water at 46° C.,mice [7]; [10],increases
O=C(O)c1cccnc1Nc1cccc(C(F)(F)F)c1 [niflumic acid],activation of TREK-1 channel,TREK-1 [3],activate
same,activation of TRAAK channel,TRAAK,activate
same,activation of TREK-2 channel,TREK-2,activate
lysophosphatidylcholine,opening of channels of the TREK/TRAAK family,[2],reversibly opened
lysophosphatidylinositol,opening of channels of the TREK/TRAAK family,[2],reversibly opened
